Key:
3T3-fibroblast cells = experiment: Cytotoxicity in 3T3-fibroblast cells, time course (XTT method); type: cell-based, murine
Experimental: Cloned tumor cells of P388 leukemia, L1210 leukemia, L5178Y lymphoma, Colon26-M3.1 carcinoma, and B16-BL6 melanoma, from mice, and K562 leukemia, liver carcinoma HEP-G2, Hs578T breast cancer, AN-3-CA adenocarcinoma, DLD colon carcinoma, and HeLa epitheloid carcinoma, from human beings, were cultured in EMM, DMEM, or RMPI-1640 culture media containing 7.5% fetal bovine serum (FBS), as described in ATCC manual. […] Tumor cells in test wells were incubated in 5% CO2 incubator at 37° C. for 2 days.
For further study of the cytotoxicity of each substance on cloned tumor cells, 3T3-fibroblast cells were cultured in test wells as described in experiment 1.

B16-BL6 melanoma = experiment: Neovascularization and tumor size after intradermal melanoma injection; type: in vivo, C57BL/6 mice; details: one milligram orally three days after tumor injection
Experimental: The in vivo mechanism of anticancer effect of HD-2 was studied in mice. After suspending 4×10^5 cells of B16-BL6 melanoma in 50% PBS, they were injected intradermally into 2 sites on the back of 6- to 7-week old C57BL/6 mice. Three days after the tumor injection, one milligram of HD-2 was given orally and size of inoculated melanoma and number of blood vessels at and around tumor sites were measured. Control group was treated with oral administration of PBS.

O1[As]2O[As]3O[As]1O[As](O2)O3 [HD-2, arsenic hexoxide (As4O6)]
morphological observation of cells (3T3-fibroblast cells; 3T3, 34 hours of treatment): complete necrosis of tumor cells
cytotoxicity, times as high as that of cisplatin (3T3-fibroblast cells; 3T3, 48 hours after administration): about 270 times
cytotoxic effect over time (FIG. 3) (3T3-fibroblast cells; 3T3, time course after the addition, XTT): demonstrated cytotoxic effect starting from 4 hours
size of solid tumor mass (B16-BL6 melanoma): decreased significantly
number of new blood vessels at and around tumor sites (B16-BL6 melanoma; FIG. 5): tended to decrease
